We go through 5 compounds from patent publication US5990208A, “Stabilization of polycarbonate/ABS blends with mixtures of hindered amines and UV absorbers” (Ciba Specialty Chemicals Corporation, priority 1997, dated 1999).

A short description of series [1]: pKa of hindered amines by non-aqueous titration. Format: physicochemical. Conditions: extrapolated from calibration plot. The source says: The pKa measurements of the hindered amines are obtained by non-aqueous titration. Organic reference materials with known pKa values in water, are titrated in non-aqueous media (1:1 acetonitrile:chloroform and 0.1 N perchloric acid/dioxane titrant system) to generate a non-aqueous calibration plot of half-neutralization potential (HNP) versus pKa. The "unknown" hindered amines are then titrated to determine the HNP, and extrapolated to obtain the corresponding pKa from this calibration plot.

The nature of series [2]: Weight loss of additive by thermogravimetric analysis (TGA). It is filed as physicochemical. Conditions: 5° C./min, nitrogen; for Temperature at which stated weight loss of additive occurs, 5%: 5% weight loss; for Temperature at which stated weight loss of additive occurs, 10%: 10% weight loss. As to the method:
Weight loss data for the hindered amines are obtained by thermogravimetric analysis on a DuPont model 2100 analyzer, operated at a scan rate of 5° C./min in a nitrogen atmosphere using 4-5 mg sample in aluminum pans.

Series [3] is described as follows: Discoloration (delta E), Dry XAW, two-pass compounded clear PC/ABS (Example 6). Conditions: in words. The method, then:
Accelerated weathering is performed using an Atlas Ci65A Weather-o-meter ("XAW"), operated in either "Dry XAW" mode (ASTM G26-90 method C) or interior auto ("IAXAW") (black panel temperature 89° C., light/dark cycle 3.8 hr/1.0 hr; irradiance 0.55 watt/m^2, inner filter-quartz, outer filter--high borate.
Yellowness Index and delta E color are performed as per ASTM D-1925, using a Chroma-Sensor CS-5 Colorimeter, operated at 10 degree, small area view, specular included.
This polymer blend is prepared by two-step compounding. The hindered amine is extrusion compounded with ABS on a 18 mm twin screw extruder with set temperatures (throat to die, ° C.) of 170/200/215/225/225/225. The ABS is optionally redried then extrusion compounded with an equal weight of polycarbonate to achieve a 50/50 wt/wt ratio blend. TINUVIN® 234 is added during the second extrusion compounding step although the UV absorber can also be added during the first compounding step.
Thereafter, chip impact bars are prepared and subjected to dry XAW accelerated weathering. The samples are removed at selected intervals for color measurement and then for destructive chip impact testing.

`CC1(C)CN(CCN(c2nc(N(CCN3CC(C)(C)NC(C)(C)C3=O)C3CCCCC3)nc(N(CCN3CC(C)(C)NC(C)(C)C3=O)C3CCCCC3)n2)C2CCCCC2)C(=O)C(C)(C)N1` [GOODRITE ® 3150, 1,3,5-tris{N-cyclohexyl-N-[2-(3,3,5,5-tetramethylpiperazin-2-on-1-yl)ethyl]amino}-s-triazine]: in series [1], the “Approximate pKa” value is listed as around 6.7. Moreover, in series [2], the “Temperature at which stated weight loss of additive occurs, 5%” value is 345 °C and the “Temperature at which stated weight loss of additive occurs, 10%” value came out at 362 °C. For the same compound, in series [3], the color stability result is reported as “reasonably equivalent color stability”.

Turning to `CN1C(C)(C)CN(CCN(c2nc(N(CCN3CC(C)(C)N(C)C(C)(C)C3=O)C3CCCCC3)nc(N(CCN3CC(C)(C)N(C)C(C)(C)C3=O)C3CCCCC3)n2)C2CCCCC2)C(=O)C1(C)C` [GOODRITE ® 3159, 1,3,5-tris{N-cyclohexyl-N-[2-(3,3,4,5,5-pentaamethylpiperazin-2-on-1-yl)ethyl]amino}-s-triazine], the “Approximate pKa” value in series [1] was around 6.1. In series [2] (2% weight loss (printed in 5% column)), the “Temperature at which stated weight loss of additive occurs, 2%” value was found to be 319 °C. Also, in series [2], the “Temperature at which stated weight loss of additive occurs, 10%” value came to 372 °C.

`CCCCCCCCON1C(C)(C)CC(OC(=O)CCCCCCCCC(=O)OC2CC(C)(C)N(OCCCCCCCC)C(C)(C)C2)CC1(C)C` [TINUVIN ® 123, bis(1-octyloxy-2,2,6,6-tetramethylpiperidin-4-yl) sebacate]: the “Approximate pKa” value in series [1] is around 4.4. In series [2], the “Temperature at which stated weight loss of additive occurs, 5%” value stood at 222 °C and the “Temperature at which stated weight loss of additive occurs, 10%” value is 236 °C.

For the compound `CC1(C)CC(OC(=O)CCCCCCCCC(=O)OC2CC(C)(C)NC(C)(C)C2)CC(C)(C)N1` [TINUVIN ® 770, bis(2,2,6,6-tetramethylpiperidin-4-yl) sebacate], in series [1], the “Approximate pKa” value is on record as around 9.0. In addition, in series [2] (1% weight loss (printed in 5% column)), the “Temperature at which stated weight loss of additive occurs, 1%” value was determined as 200 °C. The “Temperature at which stated weight loss of additive occurs, 10%” value in series [2] was determined as 260 °C.

Regarding `CC(C)(c1ccccc1)c1cc(-n2nc3ccccc3n2)c(O)c(C(C)(C)c2ccccc2)c1` [TINUVIN® 234, 2-(2-hydroxy-3,5-di-α-cumylphenyl)-2H-benzotriazole], the color stability result in series [3] was “reasonably equivalent color stability”.
